In the NIST ThermoML archive (doi:10.1016/j.jct.2006.10.016):

Assay: xn = mol fraction of the nth substance listed
Details: 101 kPa, Liquid

C[S+](C)[O-] [dimethyl sulfoxide] + CC(C)O
Details | mass density, 303.15 K [kg/m3] | mass density, 308.15 K [kg/m3] | mass density, 313.15 K [kg/m3] | mass density, 318.15 K [kg/m3] | mass density, 323.15 K [kg/m3] | viscosity, 303.15 K [mPa·s] | viscosity, 308.15 K [mPa·s] | viscosity, 313.15 K [mPa·s] | viscosity, 318.15 K [mPa·s] | viscosity, 323.15 K [mPa·s]
x1 = 0.1001 | 806.4 | 802.2 | 798.2 | 793.2 | 787.9 | 1.525 | 1.352 | 1.2 | 1.078 | 0.9656
x1 = 0.2011 | 834.9 | 830.4 | 826 | 820.7 | 815.3 | 1.391 | 1.246 | 1.118 | 1.01 | 0.9102
x1 = 0.3005 | 865 | 860.4 | 856.3 | 850.6 | 845.2 | 1.306 | 1.18 | 1.078 | 0.9836 | 0.8887
x1 = 0.4007 | 895.8 | 891 | 887.1 | 881.3 | 875.8 | 1.335 | 1.209 | 1.103 | 1.011 | 0.9133
x1 = 0.4994 | 926.6 | 921.6 | 917.9 | 911.9 | 906.5 | 1.341 | 1.223 | 1.124 | 1.036 | 0.9383
x1 = 0.601 | 958.9 | 953.7 | 950 | 943.8 | 938.5 | 1.396 | 1.274 | 1.173 | 1.08 | 0.9843
x1 = 0.701 | 991.1 | 985.6 | 982.2 | 975.7 | 970.4 | 1.474 | 1.343 | 1.233 | 1.136 | 1.041
x1 = 0.7994 | 1023.3 | 1017.6 | 1014.5 | 1007.6 | 1002.3 | 1.55 | 1.41 | 1.31 | 1.198 | 1.108
x1 = 0.9005 | 1056.9 | 1051 | 1048.2 | 1041 | 1035.8 | 1.671 | 1.516 | 1.401 | 1.285 | 1.171
x1 = 1 | 1090.7 | 1084.7 | 1082.3 | 1075.1 | 1070 | 1.832 | 1.67 | 1.537 | 1.408 | 1.289

C[S+](C)[O-] [dimethyl sulfoxide] + CCCO
Details | mass density, 303.15 K [kg/m3] | mass density, 308.15 K [kg/m3] | mass density, 313.15 K [kg/m3] | mass density, 318.15 K [kg/m3] | mass density, 323.15 K [kg/m3] | viscosity, 303.15 K [mPa·s] | viscosity, 308.15 K [mPa·s] | viscosity, 313.15 K [mPa·s] | viscosity, 318.15 K [mPa·s] | viscosity, 323.15 K [mPa·s]
x1 = 0.1003 | 824.3 | 820.3 | 816.5 | 812.7 | 808.9 | 1.598 | 1.436 | 1.257 | 1.142 | 1.034
x1 = 0.1995 | 853.1 | 848.6 | 844.8 | 840.8 | 836.8 | 1.41 | 1.278 | 1.163 | 1.066 | 0.9724
x1 = 0.2999 | 881.4 | 876.6 | 873.2 | 868.7 | 864.8 | 1.402 | 1.277 | 1.173 | 1.078 | 0.9878
x1 = 0.3994 | 910.1 | 905.3 | 901.7 | 897.1 | 892.9 | 1.393 | 1.273 | 1.17 | 1.084 | 0.9964
x1 = 0.5 | 938.7 | 933.4 | 929.7 | 924.3 | 919.7 | 1.425 | 1.31 | 1.207 | 1.11 | 1.017
x1 = 0.5995 | 968.1 | 962.5 | 958.8 | 953.2 | 948.6 | 1.492 | 1.357 | 1.246 | 1.148 | 1.07
x1 = 0.7002 | 998.2 | 992.2 | 988.8 | 982.3 | 977.6 | 1.532 | 1.4 | 1.29 | 1.201 | 1.1
x1 = 0.7998 | 1027.6 | 1021.6 | 1017.5 | 1011 | 1006.1 | 1.593 | 1.452 | 1.335 | 1.247 | 1.14
x1 = 0.9004 | 1059.4 | 1053 | 1050 | 1043 | 1037.6 | 1.728 | 1.629 | 1.493 | 1.361 | 1.219
x1 = 1 | 1090.7 | 1084.7 | 1082.3 | 1075.1 | 1070 | 1.832 | 1.67 | 1.537 | 1.408 | 1.289
